What is called IC50 is the concentration that inhibits the measured activity by half.

This is an account of results in ChEMBL document CHEMBL6103645, “Modular Synthesis of Bioactive Selenoheterocycles for Efficient Cancer Therapy via Electrochemical Selenylation/Cyclization” (J Med Chem, 2025).

The assay relates to NCI-H460. Kind of assay: Anti-tumor activity against human NCI-H460 cells assessed as cell viability incubated for 48 hrs by CCK-8 assay. To be noted: NCI-H460, 48 h. It is filed as functional, cell-based. (Formazan colour is commonly taken as a measure of viable cells.)

With `c1ccc([Se]c2c(-c3ccc(-c4cc(-c5ccc(-c6ncc7ccccc7c6[Se]c6ccccc6)cc5)cc(-c5ccc(-c6ncc7ccccc7c6[Se]c6ccccc6)cc5)c4)cc3)ncc3ccccc23)cc1`, the IC50 was over 100 µM.
Take `CC(C)(C)c1ccc(-c2ncc3ccccc3c2[Se]c2ccccc2)cc1`: the IC50 is 40.8 µM.
The same measure for `COc1ccc2c([Se]c3ccccc3)c(-c3ccccc3)ncc2c1`: 76.6 µM; for `C[Se]c1c(-c2ccccc2)ncc2ccccc12`: over 100 µM.
In the case of `N#Cc1ccccc1[Se]c1c(-c2ccccc2)ncc2ccccc12` it was over 100 µM; in that of `Clc1cccc([Se]c2c(-c3ccccc3)ncc3ccccc23)c1`, 56.7 µM.
Turning to `Clc1ccc(-c2ncc3ccccc3c2[Se]c2ccccc2)cc1`, the IC50 is over 100 µM.
Turning to `FC(F)(F)c1ccc([Se]c2c(-c3ccccc3)ncc3ccccc23)cc1`, the half-inhibitory concentration (IC50) was 53.6 µM.
The same measure for `c1ccc([Se]c2c(C3CC3)ncc3ccccc23)cc1`: over 100 µM; for `c1ccc([Se]c2c(-c3ccccc3)ncc3cccnc23)cc1`: 42.3 µM.
The same measure for `Fc1ccc2c([Se]c3ccccc3)c(-c3ccccc3)ncc2c1`: over 100 µM; for `Brc1c2ccccc2c(-c2ncc3ccccc3c2[Se]c2ccccc2)c2ccccc12`: over 100 µM.
The same measure for `COc1ccc([Se]c2c(-c3ccc4ccccc4c3)ncc3ccccc23)cc1`: over 100 µM.
For `O=P1(N(CCCl)CCCl)NCCCO1` (centres undefined) [CYCLOPHOSPHAMIDE ANHYDROUS], the 50% inhibitory concentration (IC50) amounted to 114 µM.
Take `CCCCc1ncc2ccccc2c1[Se]c1ccccc1`: the half-maximal inhibitory concentration (IC50) was over 100 µM.
In the case of `Fc1ccc(-c2ncc3ccccc3c2[Se]c2ccccc2)cc1` it was over 100 µM.
As for `COc1ccc([Se]c2c(-c3ccccc3)ncc3sccc23)cc1`, the concentration for half-maximal inhibition (IC50) is 33.6 µM.
The same measure for `FC(F)(F)c1cccc([Se]c2c(-c3ccccc3)ncc3ccccc23)c1`: 47.2 µM; for `Fc1cccc([Se]c2c(-c3ccccc3)ncc3ccccc23)c1`: over 100 µM; for `FC(F)(F)c1ccccc1[Se]c1c(-c2ccccc2)ncc2ccccc12`: 68 µM.
The same measure for `Cc1ccc2c([Se]c3ccccc3)c(-c3ccccc3)ncc2c1`: over 100 µM; for `COc1ccc([Se]c2c(-c3ccc(Br)cc3)ncc3ccccc23)cc1`: over 100 µM.
In the case of `c1ccc([Se]c2c(-c3ccc(-c4ccccc4)cc3)ncc3ccccc23)cc1` it was over 100 µM; in that of `COc1ccc([Se]c2c(-c3ccccc3)ncc3cc4c(cc23)OCO4)cc1`, over 100 µM.
For `Brc1ccc2c([Se]c3ccccc3)c(-c3ccccc3)ncc2c1`, the half-inhibitory concentration (IC50) is 86.2 µM.
Consider `COc1ccc([Se]c2cc(-c3ncc4ccccc4c3[Se]c3ccc(OC)cc3)cc([Se]c3ccc(OC)cc3)c2N)cc1`, for which the 50% inhibitory concentration (IC50) is over 100 µM.
The same measure for `COc1ccc([Se]c2c(-c3ccccc3)ncc3cc(C(F)(F)F)ccc23)cc1`: 42.6 µM.
`c1ccc([Se]c2c(-c3ccccc3)ncc3ccccc23)cc1`: the concentration for half-maximal inhibition (IC50) is 61.6 µM.
In the case of `COc1ccc([Se]c2c(-c3ccccc3)ncc3cc(Br)ccc23)cc1` it was 94.8 µM; in that of `c1ccc([Se]c2c(-c3ccc4ccccc4c3)ncc3ccccc23)cc1`, 54.8 µM; in that of `Brc1ccc(-c2ncc3ccccc3c2[Se]c2ccccc2)cc1`, over 100 µM.
In the case of `Brc1ccc([Se]c2c(-c3ccccc3)ncc3ccccc23)cc1` it was over 100 µM; in that of `COc1ccc([Se]c2c(-c3ccc(Cl)cc3)ncc3ccccc23)cc1`, 77.3 µM.
The same measure for `COc1ccc([Se]c2c(-c3ccccc3)ncc3cc(C)ccc23)cc1`: 16.6 µM; for `CCCCc1ncc2ccccc2c1[Se]c1ccc(OC)cc1`: over 100 µM.
As to `COc1ccccc1[Se]c1c(-c2ccccc2)ncc2ccccc12`, the IC50 is 64.2 µM.
The same measure for `c1ccc([Se]c2c(-c3cc4ccccc4c4ccccc34)ncc3ccccc23)cc1`: over 100 µM; for `Clc1ccc([Se]c2c(-c3ccccc3)ncc3ccccc23)cc1`: 82 µM.
In the case of `c1ccc([Se]c2c(-c3ccccc3)ncc3cc4c(cc23)OCO4)cc1` it was 34.2 µM; in that of `COc1ccc([Se]c2c(-c3ccsc3)ncc3ccccc23)cc1`, 44.5 µM; in that of `Fc1ccccc1[Se]c1c(-c2ccccc2)ncc2ccccc12`, over 100 µM.
The same measure for `COc1ccc([Se]c2c(-c3ccccc3)ncc3cccc(F)c23)cc1`: 53.2 µM; for `N#Cc1ccc([Se]c2c(-c3ccccc3)ncc3ccccc23)cc1`: over 100 µM.
As to `CN(C)c1ccc([Se]c2c(-c3ccccc3)ncc3ccccc23)cc1`, the IC50 was over 100 µM.
As to `COc1ccc([Se]c2c(-c3ccccc3)ncc3cc(Cl)ccc23)cc1`, the IC50 worked out at 93.3 µM.
In the case of `CC(C)(C)c1ncc2ccccc2c1[Se]c1ccccc1` it was over 100 µM.
In the case of `c1ccc([Se]c2c(-c3ccsc3)ncc3ccccc23)cc1` it was over 100 µM.
Turning to `Cc1cccc([Se]c2c(-c3ccccc3)ncc3ccccc23)c1`, the IC50 worked out at 38 µM.
The same measure for `FC(F)(F)c1ccc2c([Se]c3ccccc3)c(-c3ccccc3)ncc2c1`: 51.9 µM; for `Clc1ccccc1[Se]c1c(-c2ccccc2)ncc2ccccc12`: over 100 µM; for `COc1cccc([Se]c2c(-c3ccccc3)ncc3ccccc23)c1`: 56.5 µM.
The same measure for `c1ccc([Se]c2c(-c3ccccc3)ncc3sccc23)cc1`: 65.6 µM; for `Fc1ccc([Se]c2c(-c3ccccc3)ncc3ccccc23)cc1`: 20.3 µM.
In the case of `Cc1ccc(-c2ncc3ccccc3c2[Se]c2ccccc2)cc1` it was over 100 µM; in that of `N#Cc1cccc([Se]c2c(-c3ccccc3)ncc3ccccc23)c1`, 68 µM.
In the case of `c1ccc([Se]c2c(-c3ccc(-c4ncc5ccccc5c4[Se]c4ccccc4)cc3)ncc3ccccc23)cc1`, the 50% inhibitory concentration (IC50) is over 100 µM.
The same measure for `COc1cc2cnc(-c3ccccc3)c([Se]c3ccccc3)c2cc1OC`: 42.3 µM.
As to `Cc1ccc([Se]c2c(-c3ccccc3)ncc3ccccc23)cc1`, the IC50 was 52 µM.
In the case of `COc1ccc(-c2ncc3ccccc3c2[Se]c2ccccc2)cc1` it was over 100 µM.
The same measure for `Cc1ccccc1[Se]c1c(-c2ccccc2)ncc2ccccc12`: 61.6 µM; for `Clc1ccc2c([Se]c3ccccc3)c(-c3ccccc3)ncc2c1`: 99.2 µM; for `COc1ccc([Se]c2c(-c3ccccc3)ncc3cc(F)ccc23)cc1`: 39 µM.
In the case of `c1ccc([Se]c2c(-c3c4ccccc4c(-c4ncc5ccccc5c4[Se]c4ccccc4)c4ccccc34)ncc3ccccc23)cc1` it was over 100 µM; in that of `COc1ccc([Se]c2c(-c3ccccc3)ncc3cc(OC)ccc23)cc1`, 8.58 µM.
